The text below walks through data of patent US7786113B2, “Heterocyclic carbamate derivatives, their manufacture and use as pharmaceutical agents” (Hoffman-La Roche Inc., priority 2004, dated 2010).

For orientation: IC50 means the point on the concentration scale where inhibition reaches its midpoint.

One test addresses T1, Src (p60^c-src) (Homo sapiens, UniProt P12931).
T1 construct: purchased UBI, Upstate Biotech, Inc
The test is described as follows: SRC-Inhibitor-Assay (time-resolved fluorescence kinase assay), Src. Format: biochemical. Particulars: ATP 5 μM, peptide 10 μM, enzyme 2.5 U/ml, pH 7.3. The text has this:
(§1) The activity of the compounds according to this invention as inhibitors for the src-family tyrosine kinases was shown by using the following assay.
(§2) ATP, Tween™ 20, 4-(2-hydroxyethyl)-1-piperazineethanesulfonic acid (HEPES) were purchased from Roche Molecular Biochemicals, MgCl2 and MnCl2 were purchased from Merck Eurolab, Tris(2-carboxyethyl)phosphine hydrochloride (TCEP) was purchased from Pierce, 384 Well low volume fluorescence plates was purchased from Falcon.
(§3) At first the enzyme is pre-incubated for 15 min. at 15° C. in aqueous solution with corresponding amounts of inhibitors according to this invention. Then the phosphorylation reaction is started by adding a reaction mixture, containing ATP, Peptide and PT66, and subsequent shaking. The proceeding of this reaction is immediately monitored using time resolved fluorescence spectroscopy in a suitable well plate reader.
(§4) The IC50-values can be obtained from the reaction rates by using a non-linear curve fit (XLfit software (ID Business Solution Ltd., Guilford, Surrey, UK))

The target in another test is T2, Lck (p56^lck) (Homo sapiens, UniProt P06239).
T2 construct: purchased UBI, Upstate Biotech, Inc
T2 sequence (P06239 whole entry): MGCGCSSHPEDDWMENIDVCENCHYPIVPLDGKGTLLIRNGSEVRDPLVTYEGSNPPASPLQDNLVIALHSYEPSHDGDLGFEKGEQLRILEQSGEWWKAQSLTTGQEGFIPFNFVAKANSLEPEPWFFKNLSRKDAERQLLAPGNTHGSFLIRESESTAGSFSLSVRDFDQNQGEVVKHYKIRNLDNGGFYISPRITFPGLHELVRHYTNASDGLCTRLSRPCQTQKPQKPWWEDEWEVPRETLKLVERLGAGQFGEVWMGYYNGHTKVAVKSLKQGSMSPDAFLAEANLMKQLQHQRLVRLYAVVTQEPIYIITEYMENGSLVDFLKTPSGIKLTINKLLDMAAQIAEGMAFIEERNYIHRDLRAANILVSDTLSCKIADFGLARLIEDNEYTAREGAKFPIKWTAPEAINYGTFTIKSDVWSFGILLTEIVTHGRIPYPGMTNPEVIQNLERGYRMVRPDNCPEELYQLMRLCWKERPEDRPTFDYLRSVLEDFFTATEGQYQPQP
The test is described as follows: SRC-Inhibitor-Assay (time-resolved fluorescence kinase assay), Lck. Format: biochemical. Particulars: ATP 5 μM, peptide 10 μM, enzyme 2.5 U/ml, pH 7.3.
Source text: as §1, §2, §3, §4

T1 sequence (P12931 whole entry): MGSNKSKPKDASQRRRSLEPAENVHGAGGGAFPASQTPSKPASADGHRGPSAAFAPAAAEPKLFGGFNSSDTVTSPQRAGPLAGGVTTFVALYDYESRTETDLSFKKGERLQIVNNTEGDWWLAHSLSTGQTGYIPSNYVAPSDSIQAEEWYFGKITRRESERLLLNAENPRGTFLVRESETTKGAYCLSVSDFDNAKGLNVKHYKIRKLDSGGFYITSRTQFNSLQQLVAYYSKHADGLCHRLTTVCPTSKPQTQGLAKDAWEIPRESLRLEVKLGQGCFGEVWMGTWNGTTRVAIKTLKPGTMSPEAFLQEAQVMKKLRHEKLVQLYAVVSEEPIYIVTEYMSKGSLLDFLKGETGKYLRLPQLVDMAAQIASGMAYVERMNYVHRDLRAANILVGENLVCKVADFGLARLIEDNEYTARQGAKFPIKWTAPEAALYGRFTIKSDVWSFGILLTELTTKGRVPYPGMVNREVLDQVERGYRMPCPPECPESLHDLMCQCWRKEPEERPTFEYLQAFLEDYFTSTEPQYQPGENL

`CC(C)OC(=O)Nc1cnc2[nH]c(-c3cccc([S+](C)[O-])c3)nc2c1` (centres unmarked) [Example 8-1, [2-(3-Methylsulfinyl-phenyl)-3H-imidazo[4,5-b]pyridin-6-yl]-carbamic acid isopropyl ester]: the IC50 on Src (p60^c-src) lay in the range of 0.01 to 0.5 µM; on Lck (p56^lck), 0.1 to 9 µM.

As for `CC(C)OC(=O)Nc1cnc2[nH]c(-c3ccc(N4CCOCC4)cc3)nc2c1` [Example 2-5, [2-(4-Morpholin-4-yl-phenyl)-3H-imidazo[4,5-b]pyridin-6-yl]-carbamic acid isopropyl ester], the half-maximal inhibitory concentration (IC50) at Src (p60^c-src) lay within 0.01 to 0.5 µM; on Lck (p56^lck), 0.1 to 9 µM.

For the compound `CC(C)OC(=O)Nc1cnc2[nH]c(-c3ccc(F)c(F)c3)nc2c1` [Example 10-1, [2-(3,4-Difluoro-phenyl)-3H-imidazo[4,5-b]pyridin-6-yl]-carbamic acid isopropyl ester], the IC50 on Src (p60^c-src) lay within 0.01 to 0.5 µM; at Lck (p56^lck), 0.1 to 9 µM.

For `CC(C)C(C)OC(=O)Nc1cnc2[nH]c(-c3ccccc3)nc2c1` (centres unmarked) [Example 1-19, (2-Phenyl-3H-imidazo[4,5-b]pyridin-6-yl)-carbamic acid 1,2-dimethyl-propyl ester], the IC50 fell in the range of 0.5 to 1.5 µM on Src (p60^c-src) and 2 to 9 µM on Lck (p56^lck).

For `CC(=O)Nc1cccc(-c2nc3cc(NC(=O)OC(C)C)cnc3[nH]2)c1` [Example 6-1, [2-(3-Acetylamino-phenyl)-3H-imidazo[4,5-b]pyridin-6-yl]-carbamic acid isopropyl ester], the IC50 against Src (p60^c-src) came out at 0.039 µM; on Lck (p56^lck) it was 0.791 µM.

With `CC(C)(C)COC(=O)Nc1cnc2[nH]c(-c3ccccc3)nc2c1` [Example 1-12, (2-Phenyl-3H-imidazo[4,5-b]pyridin-6-yl)-carbamic acid 2,2-dimethyl-propyl ester], the values for the IC50 against Src (p60^c-src) and at Lck (p56^lck) were 0.5 to 1.5 µM and 2 to 9 µM, respectively.

In the case of `C=CC(C)OC(=O)Nc1cnc2[nH]c(-c3ccccc3)nc2c1` (centres unmarked) [Example 1-1, (2-Phenyl-3H-imidazo[4,5-b]pyridin-6-yl)-carbamic acid 1-methyl-allyl ester], the IC50 lay in the range of 0.01 to 0.5 µM at Src (p60^c-src) and 0.1 to 9 µM against Lck (p56^lck).

As for `CC(=O)Nc1cccc(-c2cc3cc(NC(=O)OCc4ccccc4)cnc3[nH]2)c1` [Example 9-23, [2-(3-Acetylamino-phenyl)-1H-pyrrolo[2,3-b]pyridin-5-yl]-carbamic acid benzyl ester], the results for the IC50 at Src (p60^c-src) and against Lck (p56^lck) were 0.01 to 0.5 µM and 0.1 to 9 µM, respectively.

`O=C(Nc1cnc2[nH]c(-c3ccccc3)nc2c1)OC1CCC1` [Example 1-17, (2-Phenyl-3H-imidazo[4,5-b]pyridin-6-yl)-carbamic acid cyclobutyl ester]: the IC50 at Src (p60^c-src) lay in the range of 0.01 to 0.5 µM; on Lck (p56^lck) it was 0.1 to 9 µM.

`CC(C)OC(=O)Nc1cnc2nc(-c3ccccc3)[nH]c2c1` [Example 1-2, (2-Phenyl-1H-imidazo[4,5-b]pyridin-6-yl)-carbamic acid isopropyl ester]: the IC50 is 0.01 to 0.5 µM on Src (p60^c-src) and 0.1 to 9 µM against Lck (p56^lck).

As to `COCCOc1ccc(-c2cc3cc(NC(=O)OCC(C)C)cnc3[nH]2)cc1` [Example 9-19, {2-[4-(2-Methoxy-ethoxy)-phenyl]-1H-pyrrolo[2,3-b]pyridin-5-yl}-carbamic acid isobutyl ester], the results for the IC50 at Src (p60^c-src) and on Lck (p56^lck) were 0.01 to 0.5 µM and 0.1 to 9 µM, respectively.

As for `CC(OC(=O)Nc1cnc2[nH]c(-c3ccccc3)nc2c1)C(F)(F)F` (centres unmarked) [Example 1-11, (2-Phenyl-3H-imidazo[4,5-b]pyridin-6-yl)-carbamic acid 2,2,2-trifluoro-1-methyl-ethyl ester], the values for the IC50 against Src (p60^c-src) and at Lck (p56^lck) were 0.228 µM and 5 to 10 µM, respectively.

For the compound `C#CC(C)OC(=O)Nc1cnc2[nH]c(-c3ccccc3)nc2c1` (centres unmarked) [Example 1-15, (2-Phenyl-3H-imidazo[4,5-b]pyridin-6-yl)-carbamic acid 1-methyl-prop-2-ynyl ester], the IC50 is 0.01 to 0.5 µM against Src (p60^c-src) and 0.1 to 9 µM against Lck (p56^lck).

As to `CC(C)OC(=O)Nc1cnc2[nH]c(-c3cccc(S(C)(=O)=O)c3)nc2c1` [Example 8-2, [2-(3-Methylsulfonyl-phenyl)-3H-imidazo[4,5-b]pyridin-6-yl]-carbamic acid isopropyl ester], the half-inhibitory concentration (IC50) against Src (p60^c-src) was in the range of 0.01 to 0.5 µM; at Lck (p56^lck), 0.1 to 9 µM.

Consider `COCCOc1ccc(-c2nc3cc(NC(=O)OC(C)C)cnc3[nH]2)cc1` [Example 2-3, {2-[4-(2-Methoxy-ethoxy)-phenyl]-3H-imidazo[4,5-b]pyridin-6-yl}-carbamic acid isopropyl ester], for which the IC50 on Src (p60^c-src) is 0.01 to 0.5 µM; on Lck (p56^lck), 0.1 to 9 µM.

Regarding `CCOC(=O)Nc1cnc2[nH]c(-c3ccc(OCCOC)cc3)cc2c1` [Example 9-4, {2-[4-(2-Methoxy-ethoxy)-phenyl]-1H-pyrrolo[2,3-b]pyridin-5-yl}-carbamic acid ethyl ester], the IC50 at Src (p60^c-src) fell in the range of 0.01 to 0.5 µM; at Lck (p56^lck) it was 0.1 to 9 µM.

With `CCC(C)OC(=O)Nc1cnc2[nH]c(-c3ccccc3)nc2c1` (centres unmarked) [Example 1-9, (2-Phenyl-3H-imidazo[4,5-b]pyridin-6-yl)-carbamic acid sec-butyl ester], the IC50 on Src (p60^c-src) lay in the range of 0.01 to 0.5 µM; on Lck (p56^lck), 0.1 to 9 µM.

For `CC(C)OC(=O)Nc1cnc2[nH]c(-c3cccc(N)c3)nc2c1` [Example 5-1, [2-(3-Amino-phenyl)-3H-imidazo[4,5-b]pyridin-6-yl]-carbamic acid isopropyl ester], the IC50 against Src (p60^c-src) is 0.01 to 0.5 µM; at Lck (p56^lck), 0.1 to 9 µM.

With `CC(C)OC(=O)Nc1cnc2[nH]c(-c3cccc(CCO)c3)nc2c1` [Example 2-9, {2-[3-(2-Hydroxy-ethyl)-phenyl]-3H-imidazo[4,5-b]pyridin-6-yl}-carbamic acid isopropyl ester], the IC50 lay within 0.01 to 0.5 µM against Src (p60^c-src) and 0.1 to 9 µM at Lck (p56^lck).

Regarding `COCCN(CCOC)c1ccc(-c2nc3cc(NC(=O)OC(C)C)cnc3[nH]2)cc1F` [Example 10-2, (2-{4-[Bis-(2-methoxy-ethyl)-amino]-3-fluoro-phenyl}-3H-imidazo[4,5-b]pyridin-6-yl)-carbamic acid isopropyl ester], the IC50 was in the range of 0.01 to 0.5 µM against Src (p60^c-src) and 0.1 to 9 µM on Lck (p56^lck).

Regarding `O=C(Nc1cnc2[nH]c(-c3ccccc3)cc2c1)OCc1ccccc1` [Example 9-8, (2-Phenyl-1H-pyrrolo[2,3-b]pyridin-5-yl)-carbamic acid benzyl ester], the values for the IC50 against Src (p60^c-src) and at Lck (p56^lck) were 0.01 to 0.5 µM and 0.1 to 9 µM, respectively.

As for `COCCOc1ccc(-c2cc3cc(NC(=O)OC(C)C)cnc3[nH]2)cc1` [Example 9-17, {2-[4-(2-Methoxy-ethoxy)-phenyl]-1H-pyrrolo[2,3-b]pyridin-5-yl}-carbamic acid isopropyl ester], the IC50 against Src (p60^c-src) was in the range of 0.01 to 0.5 µM; against Lck (p56^lck), 0.1 to 9 µM.

With `CC(=O)Nc1ccc(-c2cc3cc(NC(=O)OCC(C)(C)C)cnc3[nH]2)cc1` [Example 9-25, [2-(4-Acetylamino-phenyl)-1H-pyrrolo[2,3-b]pyridin-5-yl]-carbamic acid 2,2-dimethyl-propyl ester], the IC50 at Src (p60^c-src) lay in the range of 0.01 to 0.5 µM; at Lck (p56^lck), 0.1 to 9 µM.

Take `CC#CC(C)OC(=O)Nc1cnc2[nH]c(-c3ccccc3)nc2c1` (centres unmarked) [Example 1-16, (2-Phenyl-3H-imidazo[4,5-b]pyridin-6-yl)-carbamic acid 1-methyl-but-2-ynyl ester]: the IC50 against Src (p60^c-src) is 0.01 to 0.5 µM; at Lck (p56^lck), 0.1 to 9 µM.

For the compound `C=C(C)C(C)OC(=O)Nc1cnc2[nH]c(-c3ccccc3)nc2c1` (centres unmarked) [Example 1-22, (2-Phenyl-3H-imidazo[4,5-b]pyridin-6-yl)-carbamic acid 1,2-dimethyl-allyl ester], the IC50 against Src (p60^c-src) lay within 0.01 to 0.5 µM; at Lck (p56^lck), 0.1 to 9 µM.

In the case of `CC(C)OC(=O)Nc1cnc2[nH]c(-c3cccc(NS(C)(=O)=O)c3)nc2c1` [Example 7-1, [2-(3-Methanesulfonylamino-phenyl)-3H-imidazo[4,5-b]pyridin-6-yl]-carbamic acid isopropyl ester], the 50% inhibitory concentration (IC50) at Src (p60^c-src) lay in the range of 0.01 to 0.5 µM; against Lck (p56^lck), 0.1 to 9 µM.

For the compound `CCCOC(=O)Nc1cnc2nc(-c3ccccc3)[nH]c2c1` [Example 1-14, (2-Phenyl-1H-imidazo[4,5-b]pyridin-6-yl)-carbamic acid propyl ester], the figures for the IC50 against Src (p60^c-src) and at Lck (p56^lck) were 0.01 to 0.5 µM and 0.1 to 9 µM, respectively.

In the case of `CC(=O)Nc1cccc(-c2cc3cc(NC(=O)OCC(C)C)cnc3[nH]2)c1` [Example 9-28, [2-(3-Acetylamino-phenyl)-1H-pyrrolo[2,3-b]pyridin-5-yl]-carbamic acid isobutyl ester], the IC50 against Src (p60^c-src) fell in the range of 0.01 to 0.5 µM; against Lck (p56^lck) it was 0.1 to 9 µM.

On to `C=CCOC(=O)Nc1cnc2[nH]c(-c3ccc(OCCOC)cc3)cc2c1` [Example 9-5, {2-[4-(2-Methoxy-ethoxy)-phenyl]-1H-pyrrolo[2,3-b]pyridin-5-yl}-carbamic acid allyl ester], for which the IC50 lay in the range of 0.01 to 0.5 µM at Src (p60^c-src) and 0.1 to 9 µM at Lck (p56^lck).

For the compound `CC(C)OC(=O)Nc1cnc2[nH]c(-c3ccc(N4CCN(C)CC4)cc3)nc2c1` [Example 2-8, {2-[4-(4-Methyl-piperazin-1-yl)-phenyl]-3H-imidazo[4,5-b]pyridin-6-yl}-carbamic acid isopropyl ester], the IC50 on Src (p60^c-src) was in the range of 0.01 to 0.5 µM; at Lck (p56^lck) it was 0.1 to 9 µM.

On to `CC(=O)Nc1cccc(-c2cc3cc(NC(=O)OC(C)C)cnc3[nH]2)c1` [Example 9-20, [2-(3-Acetylamino-phenyl)-1H-pyrrolo[2,3-b]pyridin-5-yl]-carbamic acid isopropyl ester], for which the figures for the IC50 against Src (p60^c-src) and at Lck (p56^lck) were 0.01 to 0.5 µM and 0.1 to 9 µM, respectively.
